Drawing on ChEMBL document CHEMBL4665644, “L-DOPA-quinone Mediated Recovery from GIRK Channel Firing Inhibition in Dopaminergic Neurons” (ACS Med Chem Lett, 2019), this text covers Activity for one compound.

The target of assay [1] is T1, G protein-activated inward rectifier potassium channel 2 (Mus musculus) (UniProt P48542).
T1 sequence (whole entry): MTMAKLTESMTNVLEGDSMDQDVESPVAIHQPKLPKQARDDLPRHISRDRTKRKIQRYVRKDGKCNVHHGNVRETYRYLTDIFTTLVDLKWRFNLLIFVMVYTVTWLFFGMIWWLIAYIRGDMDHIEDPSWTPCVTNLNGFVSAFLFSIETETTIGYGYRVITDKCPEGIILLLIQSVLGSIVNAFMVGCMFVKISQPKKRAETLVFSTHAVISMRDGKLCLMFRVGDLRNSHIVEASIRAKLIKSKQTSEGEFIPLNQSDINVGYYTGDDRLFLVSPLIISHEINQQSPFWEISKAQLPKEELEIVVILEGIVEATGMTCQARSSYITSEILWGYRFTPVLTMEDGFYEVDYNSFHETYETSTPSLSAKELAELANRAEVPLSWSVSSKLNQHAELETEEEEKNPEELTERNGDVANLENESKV
As to the kind of experiment: Stabilization of GIRK2 channel in C57BL6 mouse brain DAergic neurons assessed as recovery of D2 receptor stimulation-mediated firing inhibition in presence of 100 nM quinpirole under continuous perfusion followed by treated at 300 uM measured after 15 mins by multi-electrode array (reference value: 4.07 +-/ 3.6%). It is filed as tissue-based. Further details: scale not given: the % may be the effect or the level left. The following applies: […].

The target of assay [2] is T1, G protein-activated inward rectifier potassium channel 2 (Mus musculus). The assay is described as follows: Stabilization of GIRK2 channel in C57BL6 mouse brain DAergic neurons assessed as recovery of GABAB receptor stimulation-mediated firing inhibition treated with 100 uM dopamine and 10 uM sulpiride D2 antagonist under continuous perfusion followed by 300 nM baclofen treated at 300 uM measured after 15 mins by multi-electrode array (reference value: 24.94 +-/ 14.46%). It counts as tissue-based. Also on record: scale not given: the % may be the effect or the level left.

Take `N[C@@H](CC1=CC(=O)C(=O)C=C1)C(=O)O`: the Activity in assay [1] was determined as 81.8%; in assay [2], 73.6%.
